The test system of assay [1] is guinea pigs. Description: In vivo bronchodilator activity by tracheal instillation against histamine challenge. Details: species or system guinea pig. The settings on record: anesthetized male guinea pigs, inhibition of histamine (i.v.)-induced rise in tracheal pressure. In short, it runs like this: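 Urethane-anaesthetised male Hartley guinea pigs (400-600 g) received compound in water by intratracheal instillation, then were paralysed, ventilated and challenged with histamine […] i.v. Tracheal pressure change gave % inhibition (≥3 animals/group); ED50 from log dose-response; duration as time until inhibition fell to 40%.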

For assay [2], the system named is guinea pig tracheal smooth muscle. In words: Tracheal relaxant activity of VIP analogs on isolated guinea pig tracheal rings. The class given is cell-based. To be noted: cumulative concentration response, relaxation as % of maximum response to VIP (10^-6 M=100%), three tissues pooled, linear regression. In outline:
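Male guinea pig tracheal rings under 1.5 g resting tension in Krebs at 37° C, 95% O2/5% CO2, isometric tension. Cumulative concentration-response curves; relaxation as % of response to 10^-6 M VIP added at end; three tissues pooled, EC50 by linear regression.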

Where a SMILES comes first, the peptide text is derived from it. Bridges are numbered along the chain shown (N, C = ends). [ ]: non-standard residue; d: D form. Phe(4-F) = N[C@@H](Cc1ccc(F)cc1)C(=O)O; Nle = CCCC[C@H](N)C(=O)O

Usually EC50 stands for the midpoint of the concentration-response curve. A lower EC50 goes with an effect from little substance.

Consider `CC(=O)N[C@@H](Cc1c[nH]cn1)C(=O)N[C@@H](CO)C(=O)N[C@@H](CC(=O)O)C(=O)N[C@@H](C)C(=O)N[C@H](C(=O)N[C@@H](Cc1ccccc1)C(=O)N[C@H](C(=O)N[C@@H](CCC(=O)O)C(=O)N[C@@H](CC(N)=O)C(=O)N[C@@H](Cc1ccc(O)cc1)C(=O)N[C@H](C(=O)N[C@@H](CCCCN)C(=O)N[C@@H](CC(C)C)C(=O)N[C@@H](CCCNC(=N)N)C(=O)N[C@@H](CCCCN)C(=O)N[C@@H](C)C(=O)N[C@@H](C)C(=O)N[C@@H](C)C(=O)N[C@@H](C)C(=O)N[C@@H](CCCCN)C(=O)N[C@H]1CCCCNC(=O)C[C@@H](C(=O)N[C@@H](CC(C)C)C(=O)N[C@@H](CCCCN)C(=O)N[C@@H](CCCCN)C(N)=O)NC(=O)[C@H](CC(N)=O)NC(=O)[C@H](CC(C)C)NC(=O)[C@H](Cc2ccc(O)cc2)NC1=O)[C@@H](C)O)[C@@H](C)O)C(C)C` [SEQ ID NO:60, Ac-[Glu^8,Lys^12,Ala^16,17,19,Asp^25,Leu^26,Lys^27,28]-VIP cyclo (Lys^21 →Asp^25)] (Ac-HSDAVFTENYTKLRKAAAAKKYLNDLKK-NH2; lactam 21-25), for which, in assay [1], the “Bronchodilator activity of VIP analogs in guinea pigs, ED50” value (“Bronchodilator activity of VIP analogs” below) amounted to 0.17 μg. The molecule also had an EC50 in assay [2] of 0.26 nM.

Consider `CCCC[C@H](NC(=O)[C@H](C)NC(=O)[C@H](CCCCN)NC(=O)[C@H](CCCNC(=N)N)NC(=O)[C@H](CC(C)C)NC(=O)[C@H](CCCCN)NC(=O)[C@@H](NC(=O)[C@H](Cc1ccc(O)cc1)NC(=O)[C@H](CC(N)=O)NC(=O)[C@H](C)NC(=O)[C@@H](NC(=O)[C@H](Cc1ccccc1)NC(=O)[C@@H](NC(=O)[C@H](C)NC(=O)[C@H](CC(=O)O)NC(=O)[C@H](CO)NC(=O)[C@H](Cc1c[nH]cn1)NC(C)=O)C(C)C)[C@@H](C)O)[C@@H](C)O)C(=O)N[C@@H](C)C(=O)N[C@@H](C)C(=O)N[C@@H](CCCCN)C(=O)N[C@H]1CCCCNC(=O)C[C@@H](C(=O)N[C@@H](CC(C)C)C(=O)N[C@@H](CCCCN)C(=O)N[C@@H](CCCCN)C(N)=O)NC(=O)[C@H](C)NC(=O)[C@H](CC(C)C)NC(=O)[C@H](Cc2ccc(O)cc2)NC1=O` [SEQ ID NO:61, Ac-[Ala^8,Lys^12,Ala^16,Nle^17,Ala^19,Ala^24,Asp^25,Leu^26,Lys^27,28]-VIP cyclo (Lys^21 →Asp^25)] (Ac-HSDAVFTANYTKLRKA[Nle]AAKKYLADLKK-NH2; lactam 21-25), for which the “Bronchodilator activity of VIP analogs” value in assay [1] was found to be 0.045 μg. Moreover, the EC50 in assay [2] amounted to 2.4 nM.

As to `CC(=O)N[C@@H](Cc1c[nH]cn1)C(=O)N[C@@H](CO)C(=O)N[C@@H](CC(=O)O)C(=O)N[C@@H](C)C(=O)N[C@H](C(=O)N[C@@H](Cc1ccccc1)C(=O)N[C@H](C(=O)N[C@@H](C)C(=O)N[C@@H](CC(N)=O)C(=O)N[C@@H](Cc1ccc(O)cc1)C(=O)N[C@H](C(=O)N[C@@H](CCCCN)C(=O)N[C@@H](CC(C)C)C(=O)N[C@@H](CCCNC(=N)N)C(=O)N[C@@H](CCCCN)C(=O)N[C@@H](C)C(=O)N[C@@H](C)C(=O)N[C@@H](C)C(=O)N[C@@H](C)C(=O)N[C@@H](CCCCN)C(=O)N[C@H]1CCCCNC(=O)C[C@@H](C(=O)N[C@@H](CC(C)C)C(=O)N[C@@H](CCCCN)C(=O)N[C@@H](CCCCN)C(N)=O)NC(=O)[C@H](C)NC(=O)[C@H](CC(C)C)NC(=O)[C@H](Cc2ccc(O)cc2)NC1=O)[C@@H](C)O)[C@@H](C)O)C(C)C` [SEQ ID NO:62, Ac-[Ala^8,Lys^12,Ala^16,17,19,Ala^24,Asp^25,Leu^26,Lys^27,28]-VIP cyclo (Lys^21 →Asp^25)] (Ac-HSDAVFTANYTKLRKAAAAKKYLADLKK-NH2; lactam 21-25), the “Bronchodilator activity of VIP analogs” value in assay [1] was 0.24 μg. For the same molecule, in assay [2], the EC50 worked out at 0.1 nM.

`CC(=O)N[C@@H](Cc1c[nH]cn1)C(=O)N[C@@H](CO)C(=O)N[C@@H](CC(=O)O)C(=O)N[C@@H](C)C(=O)N[C@H](C(=O)N[C@@H](Cc1ccccc1)C(=O)N[C@H](C(=O)N[C@@H](CCC(=O)O)C(=O)N[C@@H](CC(N)=O)C(=O)N[C@@H](Cc1ccc(O)cc1)C(=O)N[C@H](C(=O)N[C@@H](CCCCN)C(=O)N[C@@H](CC(C)C)C(=O)N[C@@H](CCCNC(=N)N)C(=O)N[C@@H](CCCCN)C(=O)N[C@@H](C)C(=O)N[C@@H](C)C(=O)N[C@@H](C)C(=O)N[C@@H](C)C(=O)N[C@@H](CCCCN)C(=O)N[C@H]1CCCCNC(=O)C[C@@H](C(=O)N[C@@H](CC(C)C)C(=O)N[C@@H](CCCCN)C(=O)N[C@@H](CCCCN)C(N)=O)NC(=O)[C@H](C)NC(=O)[C@H](CC(C)C)NC(=O)[C@H](Cc2ccc(O)cc2)NC1=O)[C@@H](C)O)[C@@H](C)O)C(C)C` [SEQ ID NO:64, Ac-[Glu^8,Lys^12,Ala^16,17,19,Ala^24,Asp^25,Leu^26,Lys^27,28]-VIP cyclo (Lys^21 →Asp^25)] (Ac-HSDAVFTENYTKLRKAAAAKKYLADLKK-NH2; lactam 21-25): the “Bronchodilator activity of VIP analogs” value in assay [1] was 0.13 μg. The molecule further showed a concentration giving a half-maximal response (EC50) in assay [2] of 0.22 nM.

In the case of `CCCC[C@H](NC(=O)[C@H](CCC(N)=O)NC(=O)[C@H](CCCCN)NC(=O)[C@H](CCCNC(=N)N)NC(=O)[C@H](CC(C)C)NC(=O)[C@H](CCCCN)NC(=O)[C@@H](NC(=O)[C@H](Cc1ccc(O)cc1)NC(=O)[C@H](CC(N)=O)NC(=O)[C@H](CCC(=O)O)NC(=O)[C@@H](NC(=O)[C@H](Cc1ccccc1)NC(=O)[C@@H](NC(=O)[C@H](C)NC(=O)[C@H](CC(=O)O)NC(=O)[C@H](CO)NC(=O)[C@H](Cc1c[nH]cn1)NC(C)=O)C(C)C)[C@@H](C)O)[C@@H](C)O)C(=O)N[C@@H](C)C(=O)N[C@@H](C)C(=O)N[C@@H](CCCCN)C(=O)N[C@H]1CCCCNC(=O)C[C@@H](C(=O)N[C@H](C(=O)N[C@@H](CC(C)C)C(=O)N[C@H](C(=O)NCC(=O)NCC(=O)N[C@H](C(N)=O)[C@@H](C)O)[C@@H](C)O)C(C)C)NC(=O)[C@H](CC(N)=O)NC(=O)[C@H](CC(C)C)NC(=O)[C@H](Cc2ccc(O)cc2)NC1=O` [SEQ ID NO:65, Ac-[Glu^8,Lys^12,Nle^17,Ala^19,Asp^25,Val^26,Thr^28,Gly^29,30,Thr^31]-VIP cyclo (Lys^21 →Asp^25)] (Ac-HSDAVFTENYTKLRKQ[Nle]AAKKYLNDVLTGGT-NH2; lactam 21-25), the “Bronchodilator activity of VIP analogs” value in assay [1] was found to be 0.84 μg. In assay [2], this molecule yielded a concentration for a half-maximal effect (EC50) of 0.88 nM.

For the molecule `CCCC[C@H](NC(=O)[C@H](CCC(N)=O)NC(=O)[C@H](CCCCN)NC(=O)[C@H](CCCNC(=N)N)NC(=O)[C@H](CC(C)C)NC(=O)[C@H](CCCCN)NC(=O)[C@@H](NC(=O)[C@H](Cc1ccc(O)cc1)NC(=O)[C@H](CC(N)=O)NC(=O)[C@H](CCC(=O)O)NC(=O)[C@@H](NC(=O)[C@H](Cc1ccc(F)cc1)NC(=O)[C@@H](NC(=O)[C@H](C)NC(=O)[C@H](CC(=O)O)NC(=O)[C@H](CO)NC(=O)[C@H](Cc1c[nH]cn1)NC(C)=O)C(C)C)[C@@H](C)O)[C@@H](C)O)C(=O)N[C@@H](C)C(=O)N[C@H](C(=O)N[C@@H](CCCCN)C(=O)N[C@H]1CCCCNC(=O)C[C@@H](C(=O)N[C@H](C(=O)N[C@@H](CC(C)C)C(=O)N[C@H](C(=O)NCC(=O)NCC(=O)N[C@H](C(N)=O)[C@@H](C)O)[C@@H](C)O)C(C)C)NC(=O)[C@H](CC(N)=O)NC(=O)[C@H](CC(C)C)NC(=O)[C@H](Cc2ccc(O)cc2)NC1=O)C(C)C` [SEQ ID NO:66, Ac-[p-F-Phe^6,Glu^8,Lys^12,Nle^17,Asp^25,Val^26,Thr^28,Gly^29,30,Thr^31]-VIP cyclo (Lys^21 →Asp^25)] (Ac-HSDAV[Phe(4-F)]TENYTKLRKQ[Nle]AVKKYLNDVLTGGT-NH2; lactam 21-25), the “Bronchodilator activity of VIP analogs” value in assay [1] is 0.12 μg. Besides, the EC50 in assay [2] was found to be 0.57 nM.

On to `CCCC[C@H](NC(=O)[C@H](CCC(N)=O)NC(=O)[C@H](CCCCN)NC(=O)[C@H](CCCNC(=N)N)NC(=O)[C@H](CC(C)C)NC(=O)[C@H](CCCCN)NC(=O)[C@@H](NC(=O)[C@H](Cc1ccc(O)cc1)NC(=O)[C@H](CC(N)=O)NC(=O)[C@H](CCC(=O)O)NC(=O)[C@@H](NC(=O)[C@H](Cc1ccccc1)NC(=O)[C@@H](NC(=O)[C@H](C)NC(=O)[C@H](CC(=O)O)NC(=O)[C@H](C)NC(=O)[C@H](Cc1c[nH]cn1)NC(C)=O)C(C)C)[C@@H](C)O)[C@@H](C)O)C(=O)N[C@@H](C)C(=O)N[C@H](C(=O)N[C@@H](CCCCN)C(=O)N[C@H]1CCCCNC(=O)C[C@@H](C(=O)N[C@@H](CC(C)C)C(=O)N[C@@H](CCCCN)C(=O)N[C@@H](CCCCN)C(=O)NCC(=O)NCC(=O)N[C@H](C(N)=O)[C@@H](C)O)NC(=O)[C@H](CC(N)=O)NC(=O)[C@H](CC(C)C)NC(=O)[C@H](Cc2ccc(O)cc2)NC1=O)C(C)C` [SEQ ID NO:67, Ac-[Ala^2,Glu^8,Lys^12,Nle^17,Asp^25,Leu^26,Lys^27,28,Gly^29,30,Thr^31]-VIP cyclo (Lys^21 →Asp^25)] (Ac-HADAVFTENYTKLRKQ[Nle]AVKKYLNDLKKGGT-NH2; lactam 21-25), for which the “Bronchodilator activity of VIP analogs” value in assay [1] is 0.077 μg. For the same molecule, the concentration giving a half-maximal response (EC50) in assay [2] was found to be 0.19 nM.

Turning to `CCCC[C@H](NC(=O)[C@H](CCC(N)=O)NC(=O)[C@H](CCCCN)NC(=O)[C@H](CCCNC(=N)N)NC(=O)[C@H](CC(C)C)NC(=O)[C@H](CCCCN)NC(=O)[C@@H](NC(=O)[C@H](Cc1ccc(O)cc1)NC(=O)[C@H](CC(N)=O)NC(=O)[C@H](CCC(=O)O)NC(=O)[C@@H](NC(=O)[C@H](Cc1ccccc1)NC(=O)[C@@H](NC(=O)[C@H](C)NC(=O)[C@H](CC(=O)O)NC(=O)[C@H](CO)NC(=O)[C@H](Cc1c[nH]cn1)NC(C)=O)C(C)C)[C@@H](C)O)[C@@H](C)O)C(=O)N[C@@H](C)C(=O)N[C@H](C(=O)N[C@@H](CCCCN)C(=O)N[C@H]1CCCCNC(=O)C[C@@H](C(=O)N[C@@H](CC(C)C)C(=O)N[C@@H](CCCCN)C(=O)N[C@@H](CCCCN)C(=O)NCC(=O)NCC(=O)N[C@H](C(N)=O)[C@@H](C)O)NC(=O)[C@H](CC(N)=O)NC(=O)[C@H](CC(C)C)NC(=O)[C@H](Cc2ccc(O)cc2)NC1=O)C(C)C` [SEQ ID NO:68, Ac-[Glu^8,Lys^12,Nle^17,Asp^25,Leu^26,Lys^27,28,Gly^29,30,Thr^31]-VIP cyclo (Lys^21 →Asp^25)] (Ac-HSDAVFTENYTKLRKQ[Nle]AVKKYLNDLKKGGT-NH2; lactam 21-25), the “Bronchodilator activity of VIP analogs” value in assay [1] came out at 0.04 μg. In assay [2], the 50% effective concentration (EC50) was determined as 0.43 nM.
